In ChEMBL document CHEMBL1141470, “4-(Heteroarylaminomethyl)-N-(2-aminophenyl)-benzamides and their analogs as a novel class of histone deacetylase inhibitors” (Bioorg Med Chem Lett, 2008):
The source made the active and inactive calls. The rule behind the calls is not given here.

How the values were obtained:
HCT-116 [1] = assay: Cell cycle arrest in human HCT116 cells by accumulation at G2/M phase; format: functional, cell-based
HMEC = assay: Cytotoxicity against human HMEC cells by MTT assay; format: cell-based
Histone deacetylase 1 [2] = target: T1, Histone deacetylase 1 (Homo sapiens, UniProt Q13547); assay: Inhibition of HDAC1 in human T24 cells assessed as induction of histone H4 acetylation after 16 hrs relative to MS-275; format: cell-based, T-24
HCT-116 [3] = assay: Cytotoxicity against human HCT116 cells by MTT assay; format: functional, cell-based
T-24 = assay: Induction of p21WAF1/CIP1 expression in human T24 cells; format: functional, cell-based
Histone deacetylase 1 [4] = target: T1, Histone deacetylase 1; assay: Inhibition of recombinant HDAC1
SW48 [5] = assay: Antitumor activity in human SW48 cells xenografted mouse assessed as tumor growth inhibition at 90 mg/kg, po qd after 14 days relative to control; format: functional; design: scale not given: the % may be the effect or the level left
A549 [6] = assay: Antitumor activity in human A549 cells xenografted mouse assessed as tumor growth inhibition at 20 mg/kg, ip qd after 14 days relative to control; format: functional; design: scale not given: the % may be the effect or the level left; conditions: route intraperitoneal
PANC-1 = assay: Antitumor activity in human PANC1 cells xenografted mouse assessed as tumor growth inhibition at 20 mg/kg, ip qd after 14 days relative to control; format: functional; design: scale not given: the % may be the effect or the level left; conditions: route intraperitoneal
SW48 [7] = assay: Antitumor activity in human SW48 cells xenografted mouse assessed as tumor growth inhibition at 20 mg/kg, ip qd after 14 days relative to control; format: functional; design: scale not given: the % may be the effect or the level left; conditions: route intraperitoneal
COLO 205 = assay: Antitumor activity in human COLO205 cells xenografted mouse assessed as tumor growth inhibition at 90 mg/kg, po qd after 14 days relative to control; format: functional; design: scale not given: the % may be the effect or the level left
A549 [8] = assay: Antitumor activity in human A549 cells xenografted mouse assessed as tumor growth inhibition at 90 mg/kg, po qd after 14 days relative to control; format: functional; design: scale not given: the % may be the effect or the level left

T1 sequence (Q13547 whole entry): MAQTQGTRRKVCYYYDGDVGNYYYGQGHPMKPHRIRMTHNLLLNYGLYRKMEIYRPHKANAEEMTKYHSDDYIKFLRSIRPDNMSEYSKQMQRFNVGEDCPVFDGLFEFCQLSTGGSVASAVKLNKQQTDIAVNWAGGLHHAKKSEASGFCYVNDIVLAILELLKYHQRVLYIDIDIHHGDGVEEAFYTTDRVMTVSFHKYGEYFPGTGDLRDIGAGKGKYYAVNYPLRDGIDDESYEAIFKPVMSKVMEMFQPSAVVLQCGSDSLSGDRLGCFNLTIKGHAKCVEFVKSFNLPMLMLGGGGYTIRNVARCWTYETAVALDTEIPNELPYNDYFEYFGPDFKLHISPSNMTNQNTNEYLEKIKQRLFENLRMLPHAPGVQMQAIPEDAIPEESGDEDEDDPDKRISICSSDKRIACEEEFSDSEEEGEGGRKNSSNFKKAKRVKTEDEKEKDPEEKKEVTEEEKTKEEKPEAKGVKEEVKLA

SMILES	IC50 (HMEC) [nM]	EC50 (Histone deacetylase 1 [2]) [nM]	IC50 (HCT-116 [3]) [nM]	IC50 (Histone deacetylase 1 [4]) [nM]	other results
COc1ccc2nc(SCc3ccc(C(=O)Nc4ccccc4N)cc3)[nH]c2c1	10000	1000	200	70	Activity (HCT-116 [1]): Active; EC50 (T-24): 600 nM
Nc1ccccc1NC(=O)c1ccc(CSc2nc3ccccc3[nH]2)cc1	14000	< 1000	300	90	
Nc1ccccc1NC(=O)c1ccc(CNc2cc(-c3ccccc3)[nH]n2)cc1			300	70	
Nc1ccccc1NC(=O)c1ccc(CNc2nc3ccc(OCCN4CCOCC4)cc3s2)cc1	15000	1000	200	60	Activity (SW48 [5]): 72%; Activity (HCT-116 [1]): Active; Activity (A549 [6]): 65%; Activity (PANC-1): 70%; Activity (SW48 [7]): 74%; Activity (COLO 205): 62%; EC50 (T-24): 1000 nM; Activity (A549 [8]): 65%
COc1ccc2nc(NCc3ccc(C(=O)Nc4ccccc4N)cc3)sc2c1	5000	1000	200	30	Activity (HCT-116 [1]): Active; EC50 (T-24): 800 nM
Nc1ccccc1NC(=O)c1ccc(CSc2ncc[nH]2)cc1			5000	500	
Nc1ccccc1NC(=O)c1ccc(CNc2nc3cc(Cl)ccc3o2)cc1	17000	1000	200	100	
Nc1ccccc1NC(=O)c1ccc(CSc2nc3ccc(NCCN4CCOCC4)cc3s2)cc1	15000	5000	200	70	
Nc1ccccc1NC(=O)c1ccc(CSc2nc3ccc(NCc4cccnc4)cc3s2)cc1	> 50000	2000	1000	800	
Cn1ccnc1SCc1ccc(C(=O)Nc2ccccc2N)cc1			5000	1000	
Nc1ccccc1NC(=O)c1ccc(CSc2nnc(-c3ccccc3)o2)cc1			400	80	
Nc1ccccc1NC(=O)c1ccc(CNc2nc3ccccc3[nH]2)cc1	27000	1000	300	100	
CSc1nnc(NCc2ccc(C(=O)Nc3ccccc3N)cc2)[nH]1			600	200	
Nc1ccccc1NC(=O)c1ccc(CSc2nc3ccc(NCc4ccccn4)cc3s2)cc1	8000	3000	1000	70	
Nc1ccccc1NC(=O)c1ccc(CNc2nc3ccc(Br)cc3s2)cc1	6000	2000	400	50	
Nc1ccccc1NC(=O)c1ccc(CNc2ncc(Br)s2)cc1			400	400	
Nc1ccccc1NC(=O)c1ccc(CNc2ncc(-c3ccc(Cl)cc3)s2)cc1			300	300	
Nc1ccccc1NC(=O)c1ccc(CSc2nc3ccccc3s2)cc1	3000	3000	800	100	
